Where “and” joins values, the source holds several entries; their conditions need not be identical. Identical values can stand only once.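 Tested at 5 concentrations; 48 h exposure; 96-well plates; endpoints linearly interpolated, else capped at highest concentration. At the GI50, growth is halved. TGI: concentration producing complete growth inhibition.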
Tests used:
Experiment in all cases: NCI-60 cell line screen, 48 h
COLO 205 colon = system: COLO 205 colon
HCT-15 colon = system: HCT-15 colon
HL-60(TB) leukemia = system: HL-60(TB) leukemia
MCF7 breast = system: MCF7 breast
NCI-H226 lung = system: NCI-H226 lung
OVCAR-4 ovarian = system: OVCAR-4 ovarian
SK-MEL-28 melanoma = system: SK-MEL-28 melanoma
SR leukemia = system: SR leukemia
U251 CNS = system: U251 CNS
HCC-2998 colon = system: HCC-2998 colon

| Structure (SMILES) | GI50 (COLO 205 colon) | TGI (COLO 205 colon) | GI50 (HCT-15 colon) | TGI (HCT-15 colon) | GI50 (HL-60(TB) leukemia) | TGI (HL-60(TB) leukemia) | GI50 (MCF7 breast) | TGI (MCF7 breast) | GI50 (NCI-H226 lung) | TGI (NCI-H226 lung) | GI50 (OVCAR-4 ovarian) | TGI (OVCAR-4 ovarian) | GI50 (SK-MEL-28 melanoma) | TGI (SK-MEL-28 melanoma) | GI50 (SR leukemia) | TGI (SR leukemia) | GI50 (U251 CNS) | TGI (U251 CNS) | GI50 (HCC-2998 colon) | TGI (HCC-2998 colon) |
| --- | --- | --- | --- | --- | --- | --- | --- | --- | --- | --- | --- | --- | --- | --- | --- | --- | --- | --- | --- | --- |
| COc1ccc(C2NC(=S)NC3=C2COc2ccc(F)cc23)cc1OC (stereo not drawn) | 36.2 µM | > 100 µM | 18.6 µM | 87 µM | 18.5 µM | 50.7 µM | 31.2 µM | > 100 µM | 16.3 µM | 70.4 µM | 23 µM | > 100 µM | 41.2 µM | > 100 µM | 50.8 µM | > 100 µM | 12.7 µM | 29.5 µM |  |  |
| COc1ccc(-c2nn(-c3cccc(Cl)c3)cc2/C=C2\C(=N)N(c3ccccc3)N=C2N)cc1 | 1.83 µM | 3.92 µM | 0.489 µM | 26 µM | 0.414 µM | 9.24 µM | 2.2 µM | 33.5 µM | 6.58 µM | > 66.8 µM | 2.13 µM | > 89.1 µM | 6.59 µM | > 100 µM | 1.04 µM | 15.1 µM | 3 µM | 35.2 µM | 0.627 µM | 4.42 µM |
| CCCCCCCCCCCCNC(=O)[C@H]1CSC(c2ccsc2)N1 (stereo partly drawn) | 7.95 µM | 15.9 µM | 0.883 µM | 1.69 µM | 0.91 µM | 2.31 µM | 0.879 µM | 1.71 µM | 0.896 µM | 1.74 µM | 0.911 µM | 1.73 µM | 0.814 µM | 1.54 µM | 0.882 µM | 2.07 µM | 0.875 µM | 1.61 µM | 0.955 µM | 2.15 µM |
| COc1cc(/C=C2\C(=O)Nc3ccc(Br)cc32)cc(OC)c1OC | 8.18 µM | > 100 µM | 3.37 µM | > 100 µM | 4.36 µM | > 100 µM | 2.64 µM | > 100 µM | 60.9 µM | > 100 µM | > 29 µM | > 100 µM | 58.9 µM | > 100 µM | 0.304 µM | 3.08 µM | 7.19 µM | 30 µM | 57.4 µM | > 100 µM |
| COc1ccc(CNC(=O)c2ccc(-c3cc(-c4nnc(C)o4)ccc3C)cc2)cc1 | > 22.9 µM | > 25 µM | 19.9 µM | > 25 µM | > 18.5 µM | > 25 µM | 9.86 µM | > 25 µM | > 20.4 µM | > 25 µM | 6.8 µM | > 25 µM | > 25 µM | > 25 µM | > 25 µM | > 25 µM | > 25 µM | > 25 µM | > 25 µM | > 25 µM |
| O=C(Nc1nc2ccc(F)cc2s1)c1cccnc1Nc1ccc(Cl)cc1Cl | 1.72 µM | 3.81 µM | 3.35 µM | 20.3 µM | 2 µM | 5.7 µM | 2.73 µM | 13 µM | 2.72 µM | 19.3 µM | 1.57 µM | > 44.5 µM | 3.69 µM | 18.6 µM | 2.22 µM | 8.23 µM | 2.92 µM | 12 µM | 4.09 µM | 18.3 µM |
| CCCC(=O)Nc1cn(COC)c(C(=O)N2C[C@H]3C[C@@]34C2=CC(=O)c2[nH]cc(C)c24)n1 | 4.41 µM | 15.9 µM and 32.4 µM |  | 50 µM and 72.2 µM |  |  | 3.53 µM | 50 µM and > 100 µM |  | 39.4 µM |  | 30 µM and 36.5 µM | 17.3 µM | 35.7 µM and > 100 µM |  | > 100 µM |  | 50 µM and > 100 µM | 1.89 µM | 9.14 µM and 6.59 µM |
| Oc1cccc(-c2nc(N3CCOCC3)c3oc4ncccc4c3n2)c1 | 10.5 µM and 17.8 µM | 41.7 µM and > 72 µM | 0.125 µM and 0.112 µM | > 100 µM | 0.117 µM and 0.364 µM |  | 0.27 µM and 0.18 µM | > 100 µM and 11.9 µM | 4.12 µM and 7.21 µM | 78.6 µM and 68.3 µM | 0.354 µM and 0.228 µM | 4.12 µM and 2.9 µM | 0.152 µM and 0.0882 µM | 2.22 µM | 0.244 µM | 7.42 µM | 0.346 µM and 0.384 µM | > 44.5 µM and 10.9 µM | 1.85 µM and 0.401 µM | 8.87 µM and > 33.9 µM |
| Cc1nnc(N=Nc2c(O)[nH]c3ccccc23)[nH]c1=O |  |  |  | > 100 µM |  | > 100 µM |  | > 100 µM |  | > 100 µM |  | > 100 µM |  | > 100 µM |  | > 100 µM |  | > 100 µM |  |  |
| Cc1cc(S(N)(=O)=O)c(S/C(=N\NS(=O)(=O)c2ccccc2)c2ccc(Cl)c(Cl)c2)cc1Cl | 45.7 µM | > 100 µM | 46.1 µM | > 100 µM | 21.7 µM | 53.4 µM | 30.5 µM | > 100 µM | 45.1 µM | > 100 µM | 40.6 µM | > 100 µM | 84.1 µM | > 100 µM | 27.9 µM | > 100 µM | 28.8 µM | > 100 µM |  |  |
| C/C(=N\O)[C@H]1CC[C@@]2(C)[C@@H]3CC[C@H]4C(C)(C)/C(=N/O)CC[C@@]45CC35CC[C@]12C (stereo partly drawn) | 5.75 µM | > 16.7 µM | 3.75 µM | 10.5 µM | 1.62 µM | > 16.7 µM | 5.82 µM | > 16.7 µM | 5.03 µM | > 16.7 µM |  |  | 4.34 µM | 14.2 µM | 1.85 µM | > 16.7 µM | 3.51 µM | 6.81 µM |  |  |
| O=C1Nc2ccc(Br)cc2C1=Nc1ccc(Cl)cc1 |  | 4.71 µM |  | 36.8 µM |  | 39 µM |  | 27.1 µM |  | 58.8 µM |  |  |  | 82.5 µM |  | > 100 µM |  | 88.8 µM |  | 39.7 µM |
| C=C1C(=O)C23CC1CCC2C12CO[C@@]3(O)[C@@H](O)C1C(C)(C)C=CC2=O (stereo partly drawn) | 3.18 µM | 1.86 µM and 10.1 µM | 1.81 µM | 1.86 µM and 3.65 µM | 0.434 µM |  |  | 11.6 µM |  | 12.5 µM |  |  | 1.58 µM | 1.48 µM and 3.35 µM | 0.721 µM | 43.6 µM and 16.1 µM | 16.7 µM | 5.15 µM and 33.3 µM | 20.7 µM |  |
| N#CC1=C(N)Oc2c(sc3c(Br)cccc23)C1c1ccc(F)cc1 (stereo not drawn) | 0.366 µM | 1.69 µM | 0.39 µM | 11.4 µM | 0.204 µM | 1.02 µM | 0.273 µM | 14.3 µM |  |  | 0.65 µM | 23.4 µM | 1.61 µM | 28.2 µM | 0.241 µM | 11.9 µM | 0.473 µM | 13.4 µM | 0.797 µM | 10.1 µM |

Source: PubChem BioAssay (NCI)
